Data on 7 molecules can be found in patent publication US3957785A, “Bβ-Pyrimidino-aminomethyl-10α-ergoline and 10α-methoxyergoline derivatives” (priority 1971, dated 1976).

Data set [1] has as its system lethal effects caused by adrenaline. As to the kind of experiment: adrenolytic activity in vivo on the rat: reduction of lethal effects caused by adrenaline. The settings on record: read-out: ID50 (dose reducing by 50% the lethal effects caused by adrenaline). The protocol:
(§1) The adrenolytic activity of the compounds of the invention was also determined in vivo on the rat in comparison with dihydroergotamine and nicergoline. Table 2 reports the doses in mg/kg (ID50) able to reduce by 50% the lethal effects caused by adrenaline after oral (os) and intravenous (i.v.) administration of these compounds as compared with dihydroergotamine and with nicergoline, i.e., 1,6-dimethyl-8 -(5'-bromonicotinoyloxymethyl)-10 -methoxyergoline (Br. J. Pharmac, 34, 700, 1968).

Data set [2] is described as follows: analgesic activity, writhing test. The format is in vivo. To be noted: for Analgesic Activity, Writhing, relative to D-propoxyphene: D-propoxyphene assigned the value of 1; for Analgesic Activity, Writhing, relative to morphine: morphine assigned the value of 1. The protocol: (§2) The analgesic activity was evaluated by means of the hot plate test and the writhing test, the data being given in comparison with morphine and D-propoxyphene.
(§3) In the hot plate and writhing tests, the comparison compounds morphine and D-propoxyphene have been arbitrarily assigned the value of 1. Thus, in the hot plate test, the compound 1,6-dimethyl-8β-(2-pyrimidino-aminomethyl)-10α-ergoline has the same activity as both morphine and D-propoxyphene, while in the writhing test that compound has 1/2 the activity of morphine and 5 times the activity of D-propoxyphene.
(In general: An intraperitoneal irritant provokes the stretching counted in writhing tests.)

Data set [3] deals with isolated guinea pig seminal vescicle. Kind of data set: inhibition of the spasmogen effect caused by adrenaline on isolated guinea pig seminal vescicle (adrenolytic activity in vitro). Details: unit: μg/ml. To be noted: isolated guinea pig seminal vescicle in physiological solution. On the procedure: The compounds of the present invention have a high and prolonged adrenolytic activity and a low toxicity and are therefore useful in therapy. This adrenolytic activity was tested on several of the present compounds in vitro in comparison with dihydroergotamine on isolated guinea pig seminal vescicle suspended in a physiological solution.
Table 1 reports the values of concentrations, in μg/ml., which are able to produce a 50% inhibition (IC50) of the spasmogen effect caused by adrenaline.

For data set [4], the system named is lethal adrenaline dose. Kind of data set: percentage of animals protected against lethal adrenaline dose, hours after administration. It is filed as in vivo, rat. On the procedure: as §1
Some of the compounds reported in Table 2 have a long lasting effect of up to 24 hours as shown by the data contained in Table 3.
Percentage of animals protected against lethal adrenaline dose

The test system of data set [5] is hypertensive rat. As to the kind of experiment: hypotensive activity on the hypertensive rat. It is filed as in vivo. To be noted: po, read-out: Hypotensive Activity, Active Dose (dose causing a pressure drop of about 30-40 mmHg). The protocol: The hypotensive activity was tested on the hypertensive rat; the reported data being the dose, expressed in mg/kg per os, which causes a pressure drop of about 30-40 mmHg.

A short description of data set [6]: acute toxicity LD50 in rats. To be noted: rat, in vivo.
Data set [7] relates to adrenalin. As to the kind of experiment: submaximal inhibiting dosage protecting 80% of rats against adrenalin injected 8 hours after administration. The format is in vivo. To be noted: Rattus norvegicus, po, read-out: ID (submaximal inhibiting dosage which protects 80% of the tested animals). On the procedure:
This greater stability was confirmed by the determination of the submaximal inhibiting dosage which protects 80% of the tested animals (rats) against a single dose of 200 mg/Kg of body weight of adrenalin injected 8 hours after administration of the tested compounds according to the invention.

The nature of data set [8]: analgesic activity, hot plate test. It is filed as in vivo. The protocol:
as §2, §3
For orientation: In hot-plate and tail-flick tests a longer latency is read as antinociception.

For data set [9] the following is noted: Arcamone et al. Bioch. Pharmac. 21, 2205, 1972; cited from earlier work.
Where [10] appears, read: 0.5 mg/Kg per os, 1 hour after administration.
The mark [11] stands for this setting: 0.5 mg/Kg per os, 2 hours after administration.
Setting [12] is: 0.5 mg/Kg per os, 4 hours after administration.
The mark [13] stands for this setting: 0.5 mg/Kg per os, 8 hours after administration.
[14] abbreviates: 0.1 mg/Kg per os, 1 hour after administration.
The mark [15] stands for this setting: 0.1 mg/Kg per os, 2 hours after administration.
Where [16] appears, read: 0.5 mg/Kg per os, 0.5 hours after administration.

“And” between values parts separate entries of the source, which are not always exact repeats. Identical values can stand only once. Like-named read-outs stand apart in the source and are kept apart here. Where only a bound is given, the exact number is not on record here.

By LD50 is commonly meant the dose expected to kill half of the subjects tested.

As for `COC12CC(CNc3ncc(C#N)cn3)CN(C)C1Cc1cn(C)c3cccc2c13` (stereo not drawn) [1,6-dimethyl-8β -(5-cyano-2-pyrimidino-aminomethyl)-10α -methoxyergoline], the ED50 came to 0.015 mg/kg in data set [1] (iv) and 0.2 mg/kg in [1] (po, os). For the same molecule, in [2], the “Analgesic Activity, Writhing, relative to D-propoxyphene” value stood at 1. The “Analgesic Activity, Writhing, relative to morphine” value in data set [2] was 0.2. Also, the “TC50 (concentration producing 50% inhibition (IC50) of the spasmogen effect caused by adrenaline)” value in data set [3] was found to be 0.0001 μc/ml. Moreover, the “% survivors” value in data set [4] (0.2 mg/Kg per os, 2 hours after administration) was found to be 100%; in data set [4] (0.2 mg/Kg per os, 4 hours after administration), 90%; in [4] (setting [10]), 80%; in data set [4] (setting [11]) it was 90%; in [4] (setting [12]) it was 80%; in data set [4] (setting [13]), 80%. Besides, the ED (30-40 mmHg pressure drop) in data set [5] (Rattus norvegicus) is 1 to 2.5 mg/kg. For the same molecule, the LD50 in data set [6] (iv) came out at 38 mg/kg; in data set [6] (po, os), 160 mg/kg. Moreover, the ED80 in data set [7] (8 h) amounted to 0.5 mg/kg.
As to `CN1CC(CNc2ncccn2)CC2c3cccc4c3c(cn4C)CC21` (stereo not drawn) [1,6-dimethyl-8β-(2-pyrimidino-aminomethyl)-10α -ergoline], in data set [2], the “Analgesic Activity, Writhing, relative to D-propoxyphene” value is on record as 5; the “Analgesic Activity, Writhing, relative to morphine” value is 0.5 and 1/2. In addition, in [5] (hypertensive rat, per os), the ED (30-40 mmHg pressure drop) was 5 to 10 mg/kg.
Consider `CN1CC(CNc2ncc(C#N)cn2)CC2c3cccc4c3c(cn4C)CC21` (stereo not drawn) [1,6-dimethyl-8β-(5-cyano-2-pyrimidino-aminomethyl)-10α -ergoline], for which the ED50 is 0.05 mg/kg in data set [1] (iv) and 0.05 mg/kg in data set [1] (po, os). The “TC50 (concentration producing 50% inhibition (IC50) of the spasmogen effect caused by adrenaline)” value in data set [3] worked out at 0.005 μc/ml. Further, the ED (30-40 mmHg pressure drop) in [5] (Rattus norvegicus) was 2.5 to 5 mg/kg. Moreover, the LD50 in data set [6] (iv) is 25 mg/kg; in data set [6] (po, os), 35 mg/kg.
On to `Cc1cnc(NCC2CC3c4cccc5c4c(cn5C)CC3N(C)C2)nc1` (stereo not drawn) [1,6-dimethyl-8β-(5-methyl-2-pyrimidino-aminomethyl)-10 α-ergoline], for which the ED50 is 0.15 mg/kg in data set [1] (iv) and 0.1 mg/kg in [1] (po, os). The “Analgesic Activity, Writhing, relative to D-propoxyphene” value in data set [2] stood at 5. In addition, the “Analgesic Activity, Writhing, relative to morphine” value in data set [2] is listed as 0.5. In addition, in [8] (D-propoxyphene assigned the value of 1), the “Analgesic Activity, Hot plate, relative to D-propoxyphene” value came to 5. Also, the “Analgesic Activity, Hot plate, relative to morphine” value in data set [8] (morphine assigned the value of 1) was 1. Also, the ED (30-40 mmHg pressure drop) in data set [5] (hypertensive rat, per os) lay within 5 to 10 mg/kg. Besides, the 50% lethal dose (LD50) in [6] (iv) was determined as 35 mg/kg; in [6] (po, os) it was 140 mg/kg.
With `CN1CC(CNc2ncc([N+](=O)[O-])cn2)CC2c3cccc4c3c(cn4C)CC21` (stereo not drawn) [1,6-dimethyl-8β-(5-nitro-2-pyrimidino-aminomethyl)-10α -ergoline], the ED50 is 0.09 mg/kg in data set [1] (iv) and 0.04 mg/kg in data set [1] (po, os). Also, in data set [3], the “TC50 (concentration producing 50% inhibition (IC50) of the spasmogen effect caused by adrenaline)” value turned out to be 0.007 μc/ml. Besides, the “% survivors” value is recorded as 50% in [4] (0.1 mg/Kg per os, 0.5 hours after administration); 90% in data set [4] (setting [14]); 60% in data set [4] (setting [15]); 70% in [4] (0.1 mg/Kg per os, 4 hours after administration); 60% in [4] (0.1 mg/Kg per os, 8 hours after administration); 10% in [4] (0.1 mg/Kg per os, 16 hours after administration). For the same molecule, the “% survivors” value in data set [4] (setting [16]) was found to be 100%; in data set [4] (setting [10]), 100%; in data set [4] (setting [11]), 100%; in data set [4] (setting [12]), 90%; in data set [4] (setting [13]), 80%; in data set [4] (0.5 mg/Kg per os, 16 hours after administration), 30%. In data set [4] (0.5 mg/Kg per os, 24 hours after administration), the “% survivors” value is given as 20%. Further, in data set [7] (8 h), the ED80 was found to be 0.5 mg/kg.
`COC12CC(CNc3ncc([N+](=O)[O-])cn3)CN(C)C1Cc1cn(C)c3cccc2c13` (stereo not drawn) [1,6-dimethyl-8β-(5-nitro-2-pyrimidino-aminomethyl)-10α -methoxyergoline]: the ED50 in data set [1] (iv) is 0.2 mg/kg; in [1] (po, os) it was less than 0.1 mg/kg. In addition, in data set [3], the “TC50 (concentration producing 50% inhibition (IC50) of the spasmogen effect caused by adrenaline)” value is reported as 0.001 μc/ml. Further, the “% survivors” value in data set [4] (setting [14]) came to 70%; in data set [4] (setting [15]), 80%; in data set [4] (setting [16]), 100%; in [4] (setting [11]), 100%; in [4] (setting [12]), 90%; in data set [4] (setting [13]) it was 40%. Besides, in data set [5] (Rattus norvegicus), the ED (30-40 mmHg pressure drop) lay in the range of 1 to 2.5 mg/kg. Also, the LD50 came out at 28 mg/kg in [6] (iv) and 200 mg/kg in [6] (po, os).
As to `CO[C@]12C[C@@H](COC(=O)c3cncc(Br)c3)CN(C)[C@@H]1Cc1cn(C)c3cccc2c13` [nicergoline, 1,6-dimethyl-8β-(5'-bromonicotinoyloxymethyl) 10α-methoxyergoline, reference compound], the ED50 in [1] (iv) was 0.024 mg/kg; in data set [1] (po, os) it was 7 mg/kg. In addition, in data set [7] (peros in rats after 8 hours, single dose of 200 mg/Kg adrenalin), the ED80 was greater than 20 mg/kg. The “metabolism in the presence of blood in vitro” value in data set [9] is “rapidly metabolized”.
